Patent publication US10457672B2, “γ-diketones as Wnt/β-catenin signaling pathway activators” (Samumed, LLC, priority 2013, dated 2019)

Test system: Wnt/β-catenin signaling pathway (Wnt-responsive SP5 promoter luciferase reporter in SW480 cells)
Experiment: Wnt reporter (SP5 promoter-firefly luciferase) activation assay in SW480 cells
Format: cell-based
Details: Homo sapiens; SW480 colon cancer cells with SP5 promoter luciferase reporter; 24 h after compound addition; normalized to DMSO; concentration at half maximal activation
Description: Compounds that enhance the Wnt activity, or Activators, were assayed as follows. Reporter cell lines were generated by stably transducing cells of colon cancer cell lines (with a lentiviral construct that included a Wnt-responsive promoter driving expression of the firefly luciferase gene).
Lentiviral constructs were made in which the SP5 promoter, a promoter having eight TCF/LEF binding sites derived from the SP5 promoter, was linked upstream of the firefly luciferase gene. The lentiviral constructs also included a hygromycin resistance gene as a selectable marker. The SP5 promoter construct was used to transduce SW480 cells, a colon cancer cell line having a mutated APC gene that generates a truncated APC protein, leading to de-regulated accumulation of β-catenin.
Cultured SW480 cells bearing a reporter construct were distributed at approximately 10,000 cells per well into 384- or 96-well multiwell plates. Compounds from a small molecule compound library were then added to the wells in half-log dilutions using a maximum concentration of three or ten micromolar. A series of control wells for each cell type received only buffer and compound solvent DMSO. Twenty-four hours after the addition of compound, reporter activity for luciferase was assayed, for example, by addition of the BrightGlo luminescence reagent (Promega) and the Victor3 plate reader (Perkin Elmer). Readings were normalized to DMSO only treated cells, and any activities above DMSO were considered activation. Compounds were considered activators if reporter activities were 2× fold or greater than DMSO. EC50 is the concentration at half maximal activation.

Compound	EC50
O=C(CCC(=O)c1ccccc1C(F)(F)F)c1ccc2occc2c1 [Compound 275, 1-(Benzofuran-5-yl)-4-(2-(trifluoromethyl)phenyl)butane-1,4-dione]	9 nM
O=C(CCC(=O)c1ccccc1F)c1ccc2occc2c1 [Compound 278, 1-(Benzofuran-5-yl)-4-(2-fluorophenyl)butane-1,4-dione]	18 nM
COc1ccccc1C(=O)CCC(=O)c1ccc2occc2c1 [Compound 281, 1-(Benzofuran-5-yl)-4-(2-methoxyphenyl)butane-1,4-dione]	61 nM
O=C(CCC(=O)c1ccc2occc2c1)c1ccccc1 [Compound 287, 1-(Benzofuran-5-yl)-4-phenylbutane-1,4-dione]	87 nM
O=C(CCC(=O)c1ccccc1C(F)(F)F)c1ccc2ocnc2c1 [Compound 288, 1-(Benzo[d]oxazol-5-yl)-4-(2-(trifluoromethyl)phenyl)butane-1,4-dione]	> 10000 nM
O=C(CCC(=O)c1ccccc1F)c1ccc2ocnc2c1 [Compound 291, 1-(Benzo[d]oxazol-5-yl)-4-(2-fluorophenyl)butane-1,4-dione]	125 nM
O=C(CCC(=O)c1ccc2ocnc2c1)c1cccc(F)c1 [Compound 292, 1-(Benzo[d]oxazol-5-yl)-4-(3-fluorophenyl)butane-1,4-dione]	595 nM
COc1ccccc1C(=O)CCC(=O)c1ccc2ocnc2c1 [Compound 294, 1-(Benzo[d]oxazol-5-yl)-4-(2-methoxyphenyl)butane-1,4-dione]	1720 nM
O=C(CCC(=O)c1ccc2ocnc2c1)c1ccccc1 [Compound 300, 1-(Benzo[d]oxazol-5-yl)-4-phenylbutane-1,4-dione]	18 nM
O=C(CCC(=O)c1ccccc1C(F)(F)F)c1ccc2sccc2c1 [Compound 301, 1-(Benzo[b]thiophen-5-yl)-4-(2-(trifluoromethyl)phenyl)butane-1,4-dione]	39 nM
COc1ccccc1C(=O)CCC(=O)c1ccc2sccc2c1 [Compound 307, 1-(Benzo[b]thiophen-5-yl)-4-(2-methoxyphenyl)butane-1,4-dione]	55 nM
O=C(CCC(=O)c1ccccn1)c1ccc2sccc2c1 [Compound 310, 1-(Benzo[b]thiophen-5-yl)-4-(pyridin-2-yl)butane-1,4-dione]	68 nM
O=C(CCC(=O)c1ccc2sccc2c1)c1ccccc1 [Compound 313, 1-(Benzo[b]thiophen-5-yl)-4-phenylbutane-1,4-dione]	44 nM
O=C(CCC(=O)c1c[nH]c2ccccc12)c1ccccc1C(F)(F)F [Compound 314, 1-(1H-Indol-3-yl)-4-(2-(trifluoromethyl)phenyl)butane-1,4-dione]	16 nM
O=C(CCC(=O)c1c[nH]c2ccccc12)c1ccc(C(F)(F)F)cc1 [Compound 316, 1-(1H-Indol-3-yl)-4-(4-(trifluoromethyl)phenyl)butane-1,4-dione]	> 10000 nM
O=C(CCC(=O)c1c[nH]c2ccccc12)c1ccccc1F [Compound 317, 1-(2-Fluorophenyl)-4-(1H-indol-3-yl)butane-1,4-dione]	> 10000 nM
COc1ccccc1C(=O)CCC(=O)c1c[nH]c2ccccc12 [Compound 319, 1-(1H-Indol-3-yl)-4-(2-methoxyphenyl)butane-1,4-dione]	279 nM
COc1cccc(C(=O)CCC(=O)c2c[nH]c3ccccc23)c1 [Compound 320, 1-(1H-Indol-3-yl)-4-(3-methoxyphenyl)butane-1,4-dione]	> 10000 nM
O=C(CCC(=O)c1c[nH]c2ccccc12)c1ccccc1 [Compound 325, 1-(1H-Indol-3-yl)-4-phenylbutane-1,4-dione]	63 nM
O=C(CCC(=O)c1n[nH]c2ccccc12)c1ccccc1C(F)(F)F [Compound 326, 1-(1H-Indazol-3-yl)-4-(2-(trifluoromethyl)phenyl)butane-1,4-dione]	117 nM
O=C(CCC(=O)c1n[nH]c2ccccc12)c1ccccc1F [Compound 329, 1-(2-Fluorophenyl)-4-(1H-indazol-3-yl)butane-1,4-dione]	89 nM
COc1ccccc1C(=O)CCC(=O)c1n[nH]c2ccccc12 [Compound 332, 1-(1H-Indazol-3-yl)-4-(2-methoxyphenyl)butane-1,4-dione]	680 nM
COc1ccc(C(=O)CCC(=O)c2n[nH]c3ccccc23)cc1 [Compound 334, 1-(1H-Indazol-3-yl)-4-(4-methoxyphenyl)butane-1,4-dione]	> 10000 nM
O=C(CCC(=O)c1n[nH]c2ccccc12)c1ccccc1 [Compound 338, 1-(1H-Indazol-3-yl)-4-phenylbutane-1,4-dione]	64 nM

Compound	EC50
O=C(CCC(=O)c1ncccn1)c1ccc2c(c1)OCCO2 [Compound 339, 1-(2,3-Dihydrobenzo[b][1,4]dioxin-6-yl)-4-(pyrimidin-2-yl)butane-1,4-dione]	9 nM
O=C(CCC(=O)c1ccncn1)c1ccc2c(c1)OCCO2 [Compound 340, 1-(2,3-Dihydrobenzo[b][1,4]dioxin-6-yl)-4-(pyrimidin-4-yl)butane-1,4-dione]	209 nM
O=C(CCC(=O)c1cccnn1)c1ccc2c(c1)OCCO2 [Compound 341, 1-(2,3-Dihydrobenzo[b][1,4]dioxin-6-yl)-4-(pyridazin-3-yl)butane-1,4-dione]	95 nM
Cc1ccccc1C(=O)CCC(=O)c1ccc2c(c1)OCCO2 [Compound 342, 1-(2,3-Dihydrobenzo[b][1,4]dioxin-6-yl)-4-(o-tolyl)butane-1,4-dione]	9 nM
Cc1cccc(C(=O)CCC(=O)c2ccc3c(c2)OCCO3)c1 [Compound 343, 1-(2,3-Dihydrobenzo[b][1,4]dioxin-6-yl)-4-(m-tolyl)butane-1,4-dione]	351 nM
Cc1ccc(C(=O)CCC(=O)c2ccc3c(c2)OCCO3)cc1 [Compound 344, 1-(2,3-Dihydrobenzo[b][1,4]dioxin-6-yl)-4-(p-tolyl)butane-1,4-dione]	307 nM
O=C(CCC(=O)c1ccc2c(c1)OCCO2)c1cncnc1 [Compound 345, 1-(2,3-Dihydrobenzo[b][1,4]dioxin-6-yl)-4-(pyrimidin-5-yl)butane-1,4-dione]	> 10000 nM
O=C(CCC(=O)c1ccco1)c1ccc2c(c1)OCCO2 [Compound 346, 1-(2,3-Dihydrobenzo[b][1,4]dioxin-6-yl)-4-(furan-2-yl)butane-1,4-dione]	24 nM
Cc1ccccc1C(=O)CCC(=O)c1ccc2c(c1)CCCO2 [Compound 358, 1-(Chroman-6-yl)-4-(o-tolyl)butane-1,4-dione]	14 nM
O=C(CCC(=O)c1ncccn1)c1ccc2c(c1)CCCO2 [Compound 362, 1-(Chroman-6-yl)-4-(pyrimidin-2-yl)butane-1,4-dione]	188 nM
O=C(CCC(=O)c1cccs1)c1ccc2c(c1)CCCO2 [Compound 364, 1-(Chroman-6-yl)-4-(thiophen-2-yl)butane-1,4-dione]	13 nM
O=C(CCC(=O)c1ccco1)c1ccc2c(c1)CCCO2 [Compound 365, 1-(Chroman-6-yl)-4-(furan-2-yl)butane-1,4-dione]	33 nM
Cc1ccccc1C(=O)CCC(=O)c1ccc2c(c1)OCO2 [Compound 368, 1-(Benzo[d][1,3]dioxol-5-yl)-4-(o-tolyl)butane-1,4-dione]	16 nM
O=C(CCC(=O)c1ncccn1)c1ccc2c(c1)OCO2 [Compound 372, 1-(Benzo[d][1,3]dioxol-5-yl)-4-(pyrimidin-2-yl)butane-1,4-dione]	97 nM
O=C(CCC(=O)c1cccs1)c1ccc2c(c1)OCO2 [Compound 374, 1-(Benzo[d][1,3]dioxol-5-yl)-4-(thiophen-2-yl)butane-1,4-dione]	13 nM
O=C(CCC(=O)c1ccco1)c1ccc2c(c1)OCO2 [Compound 375, 1-(Benzo[d][1,3]dioxol-5-yl)-4-(furan-2-yl)butane-1,4-dione]	71 nM
Cc1cccc(C(=O)CCC(=O)c2ccc3c(c2)OC(F)(F)O3)c1 [Compound 379, 1-(2,2-Difluorobenzo[d][1,3]dioxol-5-yl)-4-(m-tolyl)butane-1,4-dione]	> 10000 nM
O=C(CCC(=O)c1ccco1)c1ccc2c(c1)OC(F)(F)O2 [Compound 385, 1-(2,2-Difluorobenzo[d][1,3]dioxol-5-yl)-4-(furan-2-yl)butane-1,4-dione]	165 nM
COc1ccc(C(=O)CCC(=O)c2cccc(C)c2)cc1OC [Compound 425, 1-(3,4-Dimethoxyphenyl)-4-(m-tolyl)butane-1,4-dione]	5950 nM
COc1ccc(C(=O)CCC(=O)c2ccc(C)cc2)cc1OC [Compound 426, 1-(3,4-Dimethoxyphenyl)-4-(p-tolyl)butane-1,4-dione]	8800 nM
COc1ccc(C(=O)CCC(=O)c2cncnc2)cc1OC [Compound 430, 1-(3,4-Dimethoxyphenyl)-4-(pyrimidin-5-yl)butane-1,4-dione]	> 10000 nM
COc1ccc(C(=O)CCC(=O)c2ncccn2)cc1OC [Compound 431, 1-(3,4-Dimethoxyphenyl)-4-(pyrimidin-2-yl)butane-1,4-dione]	> 10000 nM
COc1ccc(C(=O)CCC(=O)c2ccncn2)cc1OC [Compound 432, 1-(3,4-Dimethoxyphenyl)-4-(pyrimidin-4-yl)butane-1,4-dione]	4800 nM
